Assay results published in patent publication US20110077251A1, “NOVEL 17 BETA LUPANE DERIVATIVES” (priority 2009, published 2011).

Legend:
HIVIIIB [1] = test: HIV-1 replication in MT2 cell line without human serum (RT activity in supernatant); format: cell-based; settings: Human immunodeficiency virus 1, 120 h, MT2 cells, day 5 after infection, average if tested more than once, read-out: MT2 (HIVIIIB) IC50 range
Description: (§1) HIV-1 Replication in MT2 cell line with and without 30% human serum: The cells are infected at a Multiciplicity of Infection (MOI) of 0.5 for 3 h and then washed twice with complete media to remove residual virus. Cells are then resuspended at 0.5×10^6/ml in complete medium (RPMI, 10% FBS, 1% sodium pyruvate), and seeded into 96-well plates (6.25×10^4/well). The cells are cultured in the presence or absence of various concentrations of test compounds in serial dilutions for 3 days at 37° C. The test compounds are serially diluted in complete medium supplemented or not with 30% human serum. After 3 days, 100 μL of cultured medium with cells are replaced with 120 μL of freshly diluted test compounds in complete medium containing or not 30% Human serum. The level of HIV-1 replication is determined at days 5 after infection by the presence of viral RT activity in harvested supernatant fluid. The IC50 values for the virus replication are determined by using GRAPHPAD PRISM software.
(§2) The IC50 of the compounds tested in accordance with the HIV replication activity assay MT2 (HIVIIIB) with or without human serum are represented in Table 6.

HIVIIIB [2] = test: HIV-1 replication in MT2 cell line with 30% human serum (RT activity in supernatant); format: cell-based; settings: Human immunodeficiency virus 1, 120 h, MT2 cells, day 5 after infection, average if tested more than once, read-out: MT2 (HIVIIIB) with human serum IC50 range
Description: as §1, §2

| Compound | IC50 (HIVIIIB [1]) [nM] | IC50 (HIVIIIB [2]) [nM] |
| --- | --- | --- |
| C=C(C)[C@@H]1CC[C@]2(NC(=O)OC(C)(C)C)CC[C@]3(C)[C@H](CC[C@@H]4[C@@]5(C)CC[C@H](OC(=O)CC(C)(C)C(=O)O)C(C)(C)[C@@H]5CC[C@]43C)[C@@H]12 [Cpd 8-1, 3β-O-(3′,3′-Dimethylsuccinyl)-17β-tert-butyloxycarbonylamino-28-norlup-20(29)-ene] | < 199 | – |
| C=C(C)[C@@H]1CC[C@]2(NC(=O)NC(=O)OC)CC[C@]3(C)[C@H](CC[C@@H]4[C@@]5(C)CC[C@H](OC(=O)CC(C)(C)C(=O)O)C(C)(C)[C@@H]5CC[C@]43C)[C@@H]12 [Cpd 11-1, 3β-O-(3′,3′-Dimethylsuccinyl)-17β-[N′-(methoxycarbonyl)ureido]-28-norlup-20(29)-ene] | < 199 | < 199 |
| C=C(C)[C@@H]1CC[C@]2(NC(=O)NC(C)(C)C)CC[C@]3(C)[C@H](CC[C@@H]4[C@@]5(C)CC[C@H](OC(=O)CC(C)(C)C(=O)O)C(C)(C)[C@@H]5CC[C@]43C)[C@@H]12 [Cpd 11-2, 3β-O-(3′,3′-Dimethylsuccinyl)-17β-[N′-(tert-butyl)ureido]-28-norlup-20(29)-ene] | < 199 | < 199 |
| C=C(C)[C@@H]1CC[C@]2(NC(=O)N[C@@H](C(=O)O)C(C)C)CC[C@]3(C)[C@H](CC[C@@H]4[C@@]5(C)CC[C@H](OC(=O)CC(C)(C)C(=O)O)C(C)(C)[C@@H]5CC[C@]43C)[C@@H]12 [Cpd 11-4, 3β-O-(3′,3′-Dimethylsuccinyl)-28-norlup-20(29)-ene-17β-yl-N-carbamoyl-L-valine] | < 199 | – |
| C=C(C)[C@@H]1CC[C@]2(NC(=O)N[C@@H](C(=O)O)C(C)C)CC[C@]3(C)[C@H](CC[C@@H]4[C@@]5(C)CC[C@H](OC(=O)CC(C)(C)CC(=O)O)C(C)(C)[C@@H]5CC[C@]43C)[C@@H]12 [Cpd 11-5, 3β-O-(3′,3′-Dimethylglutaryl)-28-norlup-20(29)-ene-17β-yl-N-carbamoyl-L-valine] | < 199 | – |
| C=C(C)[C@@H]1CC[C@]2(NC(=O)NCc3ccccc3)CC[C@]3(C)[C@H](CC[C@@H]4[C@@]5(C)CC[C@H](OC(=O)CC(C)(C)C(=O)O)C(C)(C)[C@@H]5CC[C@]43C)[C@@H]12 [Cpd 11-6, 3β-O-(3′,3′-Dimethylsuccinyl)-17β-[N′-(benzyl)ureido]-28-norlup-20(29)-ene] | < 199 | < 199 |
| C=C(C)[C@@H]1CC[C@]2(NC(=O)NC)CC[C@]3(C)[C@H](CC[C@@H]4[C@@]5(C)CC[C@H](OC(=O)CC(C)(C)C(=O)O)C(C)(C)[C@@H]5CC[C@]43C)[C@@H]12 [Cpd 11-7, 3β-O-(3′,3′-Dimethylsuccinyl)-17β-[N′-(methyl)ureido]-28-norlup-20(29)-ene] | < 199 | < 199 |
| C=C(C)[C@@H]1CC[C@]2(NC(=O)N3CCOCC3)CC[C@]3(C)[C@H](CC[C@@H]4[C@@]5(C)CC[C@H](OC(=O)CC(C)(C)C(=O)O)C(C)(C)[C@@H]5CC[C@]43C)[C@@H]12 [Cpd 11-8, 3β-O-(3′,3′-Dimethylsuccinyl)-17β-[(morpholine-4-carbonyl)-amino]-28-norlup-20(29)-ene] | < 199 | < 199 |
| C=C(C)[C@@H]1CC[C@]2(NC(=O)N3CCN(C)CC3)CC[C@]3(C)[C@H](CC[C@@H]4[C@@]5(C)CC[C@H](OC(=O)CC(C)(C)C(=O)O)C(C)(C)[C@@H]5CC[C@]43C)[C@@H]12 [Cpd 11-9, 3β-O-(3′,3′-Dimethylsuccinyl)-17β-[(4-methyl-piperazine-1-carbonyl)-amino]-28-norlup-20(29)-ene] | < 199 | < 199 |
| C=C(C)[C@@H]1CC[C@]2(NC(N)=O)CC[C@]3(C)[C@H](CC[C@@H]4[C@@]5(C)CC[C@H](OC(=O)CC(C)(C)C(=O)O)C(C)(C)[C@@H]5CC[C@]43C)[C@@H]12 [Cpd 11-10, 3β-O-(3′,3′-Dimethylsuccinyl)-17β-ureido-28-norlup-20(29)-ene] | < 199 | < 199 |
| C=C(C)[C@@H]1CC[C@]2(NC(=O)NC(C)(C)c3ccccc3)CC[C@]3(C)[C@H](CC[C@@H]4[C@@]5(C)CC[C@H](OC(=O)CC(C)(C)C(=O)O)C(C)(C)[C@@H]5CC[C@]43C)[C@@H]12 [Cpd 11-28, 3β-O-(3′,3′-Dimethylsuccinyl)-17β-[N′-(1-methyl-1-phenylethyl)-ureido]-28-norlup-20(29)-ene] | – | < 199 |
| C=C(C)[C@@H]1CC[C@]2(NC(=O)N3CCCC3)CC[C@]3(C)[C@H](CC[C@@H]4[C@@]5(C)CC[C@H](OC(=O)CC(C)(C)C(=O)O)C(C)(C)[C@@H]5CC[C@]43C)[C@@H]12 [Cpd 11-29, 3β-O-(3′,3′-Dimethylsuccinyl)-17β-[(pyrrolidine-1-carbonyl)-amino]-28-norlup-20(29)-ene] | – | < 199 |
| C=C(C)[C@@H]1CC[C@]2(NS(C)(=O)=O)CC[C@]3(C)[C@H](CC[C@@H]4[C@@]5(C)CC[C@H](OC(=O)CC(C)(C)C(=O)O)C(C)(C)[C@@H]5CC[C@]43C)[C@@H]12 [Cpd 12-1, 3β-O-(3′,3′-Dimethylsuccinyl)-17β-methylsulfonylamino-28-norlup-20(29)-ene] | < 199 | < 199 |
| C=C(C)[C@@H]1CC[C@]2(NC(C)=O)CC[C@]3(C)[C@H](CC[C@@H]4[C@@]5(C)CC[C@H](OC(=O)CC(C)(C)C(=O)O)C(C)(C)[C@@H]5CC[C@]43C)[C@@H]12 [Cpd 13-1, 17β-Acetylamino-3β-O-(3′,3′-dimethylsuccinyl)-28-norlup-20(29)-ene] | < 199 | < 199 |
| C=C(C)[C@@H]1CC[C@]2(NC(=O)C(=O)OC)CC[C@]3(C)[C@H](CC[C@@H]4[C@@]5(C)CC[C@H](OC(=O)CC(C)(C)C(=O)O)C(C)(C)[C@@H]5CC[C@]43C)[C@@H]12 [Cpd 13-2, 3β-O-(3′,3′-Dimethylsuccinyl)-17β-methoxyoxalyl-amino-28-norlup-20(29)-ene] | < 199 | – |
| C=C(C)[C@@H]1CC[C@]2(NC(=O)C(=O)N(C)C)CC[C@]3(C)[C@H](CC[C@@H]4[C@@]5(C)CC[C@H](OC(=O)CC(C)(C)C(=O)O)C(C)(C)[C@@H]5CC[C@]43C)[C@@H]12 [Cpd 13-3, 17β-Dimethylaminooxalyl-amino-3β-O-(3′,3′-dimethylsuccinyl)-28-norlup-20(29)-ene] | < 199 | < 199 |
| C=C(C)[C@@H]1CC[C@]2(NC(=O)CC(C)(C)C(=O)O)CC[C@]3(C)[C@H](CC[C@@H]4[C@@]5(C)CC[C@H](OC(=O)CC(C)(C)C(=O)O)C(C)(C)[C@@H]5CC[C@]43C)[C@@H]12 [Cpd 13-4, 3β-O,17β-N-bis(3′,3′-dimethylsuccinyl)-28-norlup-20(29)-ene] | < 199 | – |
| C=C(C)[C@@H]1CC[C@]2(NC(=O)CC(C)(C)CC(=O)O)CC[C@]3(C)[C@H](CC[C@@H]4[C@@]5(C)CC[C@H](OC(=O)CC(C)(C)CC(=O)O)C(C)(C)[C@@H]5CC[C@]43C)[C@@H]12 [Cpd 13-5, 3β-O,17β-N-bis(3′,3′-dimethylglutaryl)-28-norlup-20(29)-ene] | < 199 | – |
| C=C(C)[C@@H]1CC[C@]2(NC(=O)c3ccccc3)CC[C@]3(C)[C@H](CC[C@@H]4[C@@]5(C)CC[C@H](OC(=O)CC(C)(C)C(=O)O)C(C)(C)[C@@H]5CC[C@]43C)[C@@H]12 [Cpd 13-7, 17β-Benzoylamino-3β-O-(3′,3′-dimethylsuccinyl)-28-norlup-20(29)-ene] | < 199 | – |
| C=C(C)[C@@H]1CC[C@]2(NC(=O)c3nnc(C)o3)CC[C@]3(C)[C@H](CC[C@@H]4[C@@]5(C)CC[C@H](OC(=O)CC(C)(C)C(=O)O)C(C)(C)[C@@H]5CC[C@]43C)[C@@H]12 [Cpd 13-12, 3β-O-(3′,3′-Dimethylsuccinyl)-17β-[(5-methyl-[1,3,4]oxadiazole-2-carbonyl)-amino]-28-norlup-20(29)-ene] | – | < 199 |
| C=C(C)[C@@H]1CC[C@]2(NC(=O)c3cscn3)CC[C@]3(C)[C@H](CC[C@@H]4[C@@]5(C)CC[C@H](OC(=O)CC(C)(C)C(=O)O)C(C)(C)[C@@H]5CC[C@]43C)[C@@H]12 [Cpd 13-13, 3β-O-(3′,3′-Dimethylsuccinyl)-17β-[(thiazol-4-ylcarbonyl)-amino]-28-norlup-20(29)-ene] | – | < 199 |
| C=C(C)[C@@H]1CC[C@]2(NC(=O)c3ccncc3)CC[C@]3(C)[C@H](CC[C@@H]4[C@@]5(C)CC[C@H](OC(=O)[C@H]6CCC[C@@H](C(=O)O)C6)C(C)(C)[C@@H]5CC[C@]43C)[C@@H]12 [Cpd 13-15, 3β-O-(cis-Cyclohexane-3′-carboxylic acid-1′-carboxyl)-17β-(pyridin-4-ylcarbonyl)-amino-28-norlup-20(29)-ene] | – | > 1000 |
| C=C(C)[C@@H]1CC[C@]2(NC(=O)OCc3ccccc3)CC[C@]3(C)[C@H](CC[C@@H]4[C@@]5(C)CC[C@H](OC(=O)CC(C)(C)C(=O)O)C(C)(C)[C@@H]5CC[C@]43C)[C@@H]12 [Cpd 14-2, 3β-O-(3′,3′-Dimethylsuccinyl)-17β-benzyloxycarbonylamino-28-norlup-20(29)-ene] | < 199 | – |
